Results as given in US11384060B2, “Amide compounds and use thereof” (ALPHALA CO., LTD., priority 2017, dated 2022).
Read-outs that look alike come from different tables or passages of the source.

Key:
[1] = target: T1, glucagon receptor (GCGR) overexpressed CHO-K1 cells or human primary hepatocytes (Homo sapiens, UniProt P47871); assay: Glucagon cAMP inhibition assay (Cisbio cAMP Dynamic 2 HTRF); type: cell-based
T1 construct: expressed in transfected cells; host or cells: GCGR overexpressed CHO-K1 cells or human primary hepatocytes (endogenous receptor)
T1 sequence (P47871 26-477): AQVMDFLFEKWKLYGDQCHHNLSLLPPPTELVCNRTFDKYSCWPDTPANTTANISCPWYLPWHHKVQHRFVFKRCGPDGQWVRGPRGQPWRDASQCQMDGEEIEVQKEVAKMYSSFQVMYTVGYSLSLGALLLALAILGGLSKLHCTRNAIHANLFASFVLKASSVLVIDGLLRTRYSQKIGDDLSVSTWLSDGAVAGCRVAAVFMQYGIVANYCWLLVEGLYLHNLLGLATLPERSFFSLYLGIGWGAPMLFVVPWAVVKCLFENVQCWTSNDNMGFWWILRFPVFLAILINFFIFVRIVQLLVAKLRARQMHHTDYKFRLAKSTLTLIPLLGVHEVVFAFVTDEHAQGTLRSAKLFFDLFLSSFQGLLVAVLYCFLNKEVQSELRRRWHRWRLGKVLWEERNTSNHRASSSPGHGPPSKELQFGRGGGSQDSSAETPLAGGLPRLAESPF
Method: Glucagon cAMP Inhibition Assay
Downstream secondary messenger cAMP induced by glucagon was detected by Cisbio cAMP Dynamic 2 kit. Testing compounds were each prepared as a dimethyl sulfoxide (DMSO) solution at the concentration of 10 mM. To evaluate the potency of compounds in inhibiting the cAMP production, glucagon receptor (GCGR) overexpressed CHO-K1 cells or human primary hepatocytes were treated with compounds with a serial dilution. The cells were re-suspended in Hank's Balanced Salt solution (HBSS) contained 0.1% (w/v) bovine serum albumin and 800 nM 3-isobutyl-1-methylxanthine (IBMX) and seeded into low volume, 384 wells white plate. The diluted compounds were then added into the plate for 30 minutes pre-incubation where the final DMSO concentration was 1%. The cells were stimulated with glucagon at the concentration equaled to EC50 (an indicium of the concentration of a drug that gives half-maximal response) for 30 minutes at room temperature. After incubation, lysis buffer contain cAMP antibody and fluorescence acceptor were added into each well for additional 60 minutes incubation. Results were recorded by Molecular Devices SpectraMax Paradigm with the HTRF Detection Cartridges and the IC50 value of each compound in inhibiting the cAMP production was calculated with non-linear regression based on the amount of cAMP production.

glucagon receptor (GCGR) = target: T2, glucagon receptor (GCGR) (Homo sapiens, UniProt P47871); assay: I125-glucagon binding assay (competition, GCGR membrane fractions)
T2 construct: expressed in transfected cells; host or cells: CHO-K1 cells overexpressing GCGR (membrane fractions)
T2 sequence (P47871 26-477): as above
Method: I^125-Glucagon Binding Assay
The binding affinity of each compound was evaluated by a competition assay with I^125-glucagon. GCGR membrane fractions were obtained from GCGR overexpressed CHO-K1 cells as a stock of 1 mg/ml concentration. To evaluate the IC50 of compounds binding to GCGR, GCGR membrane fractions were treated with compounds with a serial dilution. The membrane fractions were diluted to 7.5 microgram per well in 70 microliter assay buffer contained 50 mM Tris pH 7.4 and 0.5% (w/v) bovine serum albumin and added into 96 wells plate. The membrane fractions were then mixed with 10 microliter diluted compounds. After 5 minutes pre-incubation, 20 microliter I^125 labeled glucagon (Perkin Elmer) was added into each well at the final concentration of 0.0625 nM. The assay mixtures were incubated at 25° C. for 30 minutes and then transferred onto the Millipore MultiScreen GF/B Plate coated with 0.5% (w/v) Polyethyleneimine. The filter plate was washed with wash buffer contained 50 mM Tris pH 7.4 for 2 times, 300 microliter each time. The residual isotope was detected by Hidex CHAMELEON V micro-beta counter and the IC50 value of each compound binding to GCGR was calculated with non-linear regression.

[2] = inhibition of glucagon (EC50 concentration) induced cAMP production
[3] = competition with I125-glucagon 0.0625 nM, membrane fractions of GCGR overexpressed CHO-K1 cells

SMILES	IC50 cAMP [1, 2] [µM]	IC50 cAMP [1] [µM]	IC50 (glucagon receptor (GCGR)) [µM]	further results
CCOC(=O)CCNC(=O)c1ccc(N[C@@H](Cc2ccc3ccccc3c2)C(=O)NC(C)C)cc1 [Compound 24-13, Ethyl (S)-3-(4-((1-(isopropylamino)-3-(naphthalen-2-yl)-1-oxopropan-2-yl)amino)benzamido)propanoate]	–	–	–	IC50 cAMP ([1]; uM): >10 µM
CCOC(=O)CCNC(=O)c1ccc(N[C@H](Cc2ccc(-c3cc4ccccc4o3)cc2)C(=O)NC(C)C)cc1 [Compound 24-21, Ethyl (R)-3-(4-((3-(4-(benzofuran-2-yl)phenyl)-1-(isopropylamino)-1-oxopropan-2-yl)amino)benzamido)propanoate]	–	–	4.1	IC50 cAMP ([1]; uM): >10 µM
O=C(O)CCNC(=O)c1ccc(N[C@@H](Cc2ccccc2)C(=O)Nc2ccc(-c3ccc(Cl)cc3Cl)cc2)cc1 [Compound 23-14, (S)-3-(4-((1-((2′,4′-dichloro-[1,1′-biphenyl]-4-yl)amino)-1-oxo-3-phenylpropan-2-yl)amino)benzamido)propanoic Acid]	–	–	–	IC50 cAMP ([1]; uM): >10 µM; IC50 (glucagon receptor (GCGR); uM): > 10 µM
CC(C)(C)c1ccc(-c2nnc([C@H](Cc3ccc(-c4cc5ccccc5o4)cc3)Nc3ccc(C(=O)NCCC(=O)O)cc3)o2)cc1 [Compound 20-1, (S)-3-(4-((2-(4-(benzofuran-2-yl)phenyl)-1-(5-(4-(tert-butyl)phenyl)-1,3,4-oxadiazol-2-yl)ethyl)amino)benzamido)propanoic Acid]	–	1.403	0.201	–
O=C(O)CCNC(=O)c1ccc(N[C@H](COc2ccc(-c3cc4ccccc4o3)cn2)c2ccccc2)cc1 [Compound 15-5, (S)-3-(4-((2-((5-(benzofuran-2-yl)pyridin-2-yl)oxy)-1-phenylethyl)amino)benzamido)propanoic Acid]	–	2.067	0.706	–
CC(C)COC[C@@H](Cc1ccc(-c2cc3ccccc3o2)cc1)Nc1ccc(C(=O)NCCC(=O)O)cc1 [Compound 19-21, (R)-3-(4-((1-(4-(benzofuran-2-yl)phenyl)-3-isobutoxypropan-2-yl)amino)benzamido)propanoic Acid]	–	0.4373	0.269	–
CC(C)NC(=O)[C@H](Cc1cccc2ccccc12)Nc1ccc(C(=O)NCCC(=O)O)cc1 [Compound 24-12, (S)-3-(4-((1-(isopropylamino)-3-(naphthalen-1-yl)-1-oxopropan-2-yl)amino)benzamido)propanoic Acid]	–	–	–	IC50 cAMP ([1]; uM): >10 µM
CCOC(=O)CCNC(=O)c1ccc(N[C@@H](Cc2cccc3ccccc23)C(=O)NC(C)C)cc1 [Compound 24-11, Ethyl (S)-3-(4-((1-(isopropylamino)-3-(naphthalen-1-yl)-1-oxopropan-2-yl)amino)benzamido)propanoate]	–	–	–	IC50 cAMP ([1]; uM): >10 µM
Cc1cc(C)c(-c2ccc(C[C@H](Nc3ccc(C(=O)NCCS(=O)(=O)O)cc3)C(=O)Nc3ccc(C(C)(C)C)cc3)cc2)c(C)c1 [Compound 23-26, (S)-2-(4-((1-((4-(tert-butyl)phenyl)amino)-1-oxo-3-(2′,4′,6′-trimethyl-[1,1′-biphenyl]-4-yl)propan-2-yl)amino)benzamido)ethane-1-sulfonic Acid]	–	39.3	–	–
CCOC(=O)CCNC(=O)c1ccc(N[C@@H](Cc2c[nH]c3ccccc23)C(=O)Nc2ccc(-c3cc4ccccc4o3)cc2)cc1 [Compound 23-27, Ethyl (S)-3-(4-((1-((4-(benzofuran-2-yl)phenyl)amino)-3-(1H-indol-3-yl)-1-oxopropan-2-yl)amino)benzamido)propanoate]	–	34.6	–	–
CC[C@H](C)[C@@H](COc1ccc(-c2nnc(C(C)(C)C)o2)c(OC)c1)Nc1ccc(C(=O)NCCC(=O)O)cc1 [Compound 13-13, 3-(4-(((2S,3S)-1-(4-(5-(tert-butyl)-1,3,4-oxadiazol-2-yl)-3-methoxyphenoxy)-3-methylpentan-2-yl)amino)benzamido)propanoic Acid]	–	–	–	IC50 (glucagon receptor (GCGR); [3]): 0.883 µM
CC(C)NC(=O)[C@H](Cc1ccc2ccccc2c1)Nc1ccc(C(=O)NCCC(=O)O)cc1 [Compound 24-14, (S)-3-(4-((1-(isopropylamino)-3-(naphthalen-2-yl)-1-oxopropan-2-yl)amino)benzamido)propanoic Acid]	–	–	–	IC50 cAMP ([1]; uM): >10 µM

More lines, main results first:

IC50 cAMP [1, 2] [µM]	IC50 cAMP [1] [µM]	IC50 (glucagon receptor (GCGR)) [µM]	SMILES	further results
0.246	–	–	COc1cc(OC[C@@H](Nc2ccc(C(=O)NCCC(=O)O)cc2)C(C)C)ccc1-c1ccc(C(F)(F)F)cc1 [Compound 13-10, (S)-3-(4-((1-((2-methoxy-4′-(trifluoromethyl)-[1,1′-biphenyl]-4-yl)oxy)-3-methylbutan-2-yl)amino)benzamido)propanoic Acid]	IC50 (glucagon receptor (GCGR); [3]): 0.092 µM
–	>30	2.99	CC(C)C[C@@H](COc1ccc(-c2ccc(C(F)(F)F)nn2)cn1)Nc1ccc(C(=O)NCCC(=O)O)cc1 [Compound 15-19, (S)-3-(4-((4-methyl-1-((5-(6-(trifluoromethyl)pyridazin-3-yl)pyridin-2-yl)oxy)pentan-2-yl)amino)benzamido)propanoic Acid]	–
0.197	–	–	CCOC(=O)CCNC(=O)c1ccc(N[C@@H](COc2ccc(-c3nc4ccccc4s3)cc2)C(C)C)cc1 [Compound 1-51, Ethyl (R)-3-(4-((1-(4-(benzo[d]thiazol-2-yl)phenoxy)-3-methylbutan-2-yl)amino)benzamido)propanoate]	IC50 (glucagon receptor (GCGR); cell prints its own unit uM under a nM head): > 30 µM
–	0.0768	0.151	CCCCC[C@@H](Cc1ccc(-c2ccc(OC(F)(F)F)cc2)cc1)Nc1ccc(C(=O)NCCC(=O)O)cc1 [Compound 19-9, (S)-3-(4-((1-(4′-(trifluoromethoxy)-[1,1′-biphenyl]-4-yl)heptan-2-yl)amino)benzamido)propanoic Acid]	–
0.298	–	–	CC(C)(C)[C@@H](COc1ccc(-c2ccc(C(F)(F)F)cc2Cl)cc1)Nc1ccc(C(=O)NCCC(=O)O)cc1 [Compound 1-42, (S)-3-(4-((1-((2′-chloro-4′-(trifluoromethyl)-[1,1′-biphenyl]-4-yl)oxy)-3,3-dimethylbutan-2-yl)amino)benzamido)propanoic aid]	IC50 (glucagon receptor (GCGR); [3]): 0.234 µM
0.2042	–	–	CC(C)[C@@H](COc1ccc(-c2cc3ccccc3o2)cc1)N(C)c1ccc(C(=O)NCCC(=O)O)cc1 [Compound 6-1, (S)-3-(4-((1-(4-(benzofuran-2-yl)phenoxy)-3-methylbutan-2-yl)(methyl)amino)benzamido)propanoic Acid]	IC50 (glucagon receptor (GCGR); [3]): 0.391 µM
1.078	–	–	CC[C@H](C)[C@@H](COc1ccc(-c2ccc(OC(F)(F)F)cc2)cc1)Nc1ccc(C(=O)NCCC(=O)O)cc1 [Compound 1-6, 3-(4-(((2S,3S)-3-methyl-1-((4′-(trifluoromethoxy)-[1,1′-biphenyl]-4-yl)oxy)pentan-2-yl)amino)benzamido)propanoic Acid]	IC50 (glucagon receptor (GCGR); [3]): 0.228 µM
–	>30	> 30	CC(C)[C@@H](COc1nnc(-c2ccc(C(F)(F)F)cc2F)o1)Nc1ccc(C(=O)NCCC(=O)O)cc1 [Compound 22-17]	–
0.234	–	–	CC(C)C[C@@H](COc1ccc(-c2cc3ccccc3o2)c(F)c1)Nc1ccc(C(=O)NCCC(=O)O)cc1 [Compound 8-20, (S)-3-(4-((1-(4-(benzofuran-2-yl)-3-fluorophenoxy)-4-methylpentan-2-yl)amino)benzamido)propanoic Acid]	IC50 (glucagon receptor (GCGR); [3]): 0.083 µM
2.65	–	–	CC(C)[C@@H](COc1ccc(-c2cc3ccccc3o2)nc1)Nc1ccc(C(=O)NCCC(=O)O)cc1 [Compound 10-6, (S)-3-(4-((1-((6-(benzofuran-2-yl)pyridin-3-yl)oxy)-3-methylbutan-2-yl)amino)benzamido)propanoic Acid]	IC50 (glucagon receptor (GCGR); [3]): 0.252 µM
–	–	> 30	CCC(C)[C@@H](COc1nnc(-c2ccc(C(C)(C)C)cc2)o1)Nc1ccc(C(=O)NCCC(=O)O)cc1 (stereo partly drawn) [Compound 22-9, 3-(4-(((2S)-1-((5-(4-(tert-butyl)phenyl)-1,3,4-oxadiazol-2-yl)oxy)-3-methylpentan-2-yl)amino)benzamido)propanoic Acid]	–
–	–	> 30	CCC(C)[C@@H](COc1nnc(-c2ccc(OC(F)(F)F)cc2)o1)Nc1ccc(C(=O)NCCC(=O)O)cc1 (stereo partly drawn) [Compound 22-8, 3-(4-(((2S)-3-methyl-1-((5-(4-(trifluoromethoxy)phenyl)-1,3,4-oxadiazol-2-yl)oxy)pentan-2-yl)amino)benzamido)propanoic Acid]	–
0.213	–	–	CC[C@H](C)[C@@H](COc1ccc(-c2ccc(F)cc2F)cc1)Nc1ccc(C(=O)NCCC(=O)O)cc1 [Compound 1-26]	–
